Measurements from US20130225641A1, “ANTICANCER COMPOUNDS AND PREPARATION METHODS THEREOF” (priority 2010, published 2013).

Columns and labels:
[1] = Side effects in tumor transplanted nude mice; format: in vivo, nude mice (nu/nu); conditions: during treatment
Procedure: T-cell deficient nude mice (nu/nu) of 6 weeks old were purchased from Charles River Laboratory, and housed and treated in a sterile environment following Institutional Animal Care & Use Committee Program. 48 mice were respectively subcutaneously inoculated on ribbed belly with 5×10^6 human liver cancer cells (HepG3B), human lung caner cells (NCI-H23), and human colon cancer cells (HCT-116) suspended in 0.2 ml HBSS/matrigel (50:50, V/V). When the tumor grew to have an average diameter of 7-8 mm and a volume of about 100-200 mm^3, 24 mice were picked up, and assigned to treatment groups (16 animals/2 groups), and a control group (8 animals). The 2 treatment groups were administered with the compounds ZTP and ZTQ dissolved in 15% Captsol respectively at a dose of 30 mg/kg and 60 mg/kg, and the control group only received an excipient (15% Captsol).
The dose schedule of the test compounds in the tumor transplanted nude mice was as follows: the compounds ZTP and ZTQ dissolved in 15% Captsol were daily orally administered as a 200 μl solution containing 0.75 mg of ZTP and 1.5 mg of ZTQ for 5 days/week over 3 consecutive weeks, followed by one-week break; and the control group was only administered with 200 μl of the placebo (15% Captsol) for 3 weeks, followed by 1 week of break. The two groups of animals were housed separately, and allowed to free access to food.

CCL-225 = experiment: MTT cytotoxicity, CCL-225; format: cell-based; conditions: Homo sapiens, CCL-225, Colonic, 72 hrs, read-out: LC50 (the source's name)
Procedure: The cytotoxicity of ZTP and ZTQ was analyzed by using human tumor cell lines. Human tumor cell lines were purchased from ATCC and NCI, and cultured in DMEM medium containing 10% FBS at 37° C. in 5% CO2 in an incubator. The cells grown to confluence were used for cytotoxicity analysis. The cells were digested with trypsin, washed with the culture medium, and then counted. 33 tumor cell lines were cultured. The cells were seeded at a density of 3000-6000 cells/well in a 96-well plate and incubated for 16-24 hrs. Then, various concentrations of ZTP or ZTQ dissolved in DMSO were added, and cultured for 72 hrs. The drug-treated cells and control cells were analyzed by MTT.

Compound	side effect, including the change in body weight [1]	CC50 (CCL-225) [µM]
CNC(=O)c1cc(Sc2ccc(NC(=S)Nc3ccc(Cl)c(C(F)(F)F)c3)cc2)ccn1 [ZTQ, N-[4-chloro-3-(trifluoromethyl)phenyl]-[4-(N-methyl-formamide)(4-pyridylthio)phenyl]-thiourea]	no obvious side effect	1.43
CNC(=O)c1cc(Oc2ccc(NC(=S)Nc3ccc(Cl)c(C(F)(F)F)c3)cc2)ccn1 [ZTP, N-[4-chloro-3-(trifluoromethyl)phenyl]-[4-(N-methyl-formamide)(4-pyridyloxy)phenyl]-thiourea]		1.98
